Data from patent US4935434A, “Antiarthritic isoxazole-4-carboxamides” (Bristol-Myers Company, priority 1988, dated 1990).
Like-named read-outs stand apart in the source and are kept apart here.

Key:
[1] = tested on: adjuvant-induced polyarthritis; assay: Modified developing adjuvant arthritis in rats (adjuvant-induced polyarthritis, AIP); type: in vivo, male Lewis rats; conditions: Rattus norvegicus, po; for inhibition in vivo at 89 mg/kg: 89 mg/kg (d. 1-5) once daily p.o.; for inhibition in vivo at 100 mg/kg: 100 mg/kg once daily p.o. d. 1-8; for inhibition in vivo at 50 mg/kg: 50 mg/kg once daily p.o. d. 1-8; for inhibition in vivo at 76 mg/kg: 76 mg/kg once daily p.o. d. 1-8
Protocol: A. Modified developing adjuvant arthritis in rats.
This test is based on the procedure originally described by Pearson (Proc. Soc. Biol. Med., 1956, pp 91-5). Each experimental group used six male Lewis rats weighing approx. 250 gm. Arthritis was produced by a single intradermal injection of Mycobacterium butyricum (0.6 mg in 0.1 ml mineral oil) into the base of the tail. Test compounds were administered orally, once daily, starting on the day of inoculation (day 1) through day 8. The initial dosage was reduced during this period when side effects were observed. The paw volume (average of two hind paws) was measured by the mercury displacement method at least twice weekly during the course of the experiment (40 to 42 days). The efficacy of a compound was expressed as the percent reduction of hind paw volume of treated vs. untreated rats using the following equation: [formula]
^a once daily, p.o., from d. 1-8 (unless otherwise specified).
^b % inhibition of paw edema: 0 = <25; + = 25-<40; ++ = 40-<60; +++ =

[2] = tested on: carragenin-induced paw edema; assay: Carrageenin induced paw edema in the rat (CIP); type: in vivo, male Sprague Dawley rats; conditions: single oral dose 50 mg/kg 30 min. prior to carrageenin, determined 4 hrs. after injection, read-out: CIP % inhib. (reduction in paw volume)
Protocol: B. Carrageenin induced paw edema in the rat.
This test is based on the procedure originally described by Holsapple and Yim (Inflammation, 1984, 8:223). Six male Sprague Dawley rats weighing approx. 300 gm were used in each experimental group. The rats had been starved for 24 hours prior to injection of 0.1 ml of 1% carrageenin into the plantar surface of the left hind paw. Test compounds were dosed orally 30 minutes prior to carrageenin administration. The volumes of the left hind paws were measured by mercury displacement at 2,4, and 6 hours following carrageenin injection. The efficacy of a compound was expressed as the percent inhibition of carrageenin injected paw volume as compared to non-injected paw using the following equation: [formula] The peak of drug effects usually occurred 2-4 hours following carrageenin injection.
^c test compound administered as a single oral dose of 50 mg/kg 30
min. prior to carrageenin injection; % inhibition determined 4 hrs. after
carrageenin injection; I = <25% reduction in paw volume and A =
≥25% reduction in paw volume.

[3] = 528 h, d. 20-22, read-out: AIP % inhib. (% inhibition of paw edema) d. 20-22
[4] = 1008 h, d. 40-42, read-out: AIP % inhib. (% inhibition of paw edema) d. 40-42

| Compound | inhibition in vivo at 50 mg/kg [2] [%] | inhibition in vivo at 50 mg/kg [1, 3] [%] | inhibition in vivo at 50 mg/kg [1, 4] [%] | further results |
| --- | --- | --- | --- | --- |
| O=C(NC1CC1)c1cnoc1C1CC1 [Example 4, 5-Cyclopropylisoxazole-4-(N-cyclopropyl)carboxamide] | < 25 |  |  | inhibition in vivo at 89 mg/kg [1, 3]: 40 to 60%; inhibition in vivo at 89 mg/kg [1, 4]: 60 to 80% |
| COc1ccc(NC(=O)c2cnoc2C2CC2)cc1 [Example 6, 5-Cyclopropylisoxazole-4-carboxylic acid (4-methoxy)anilide] | < 25 |  |  | inhibition in vivo at 100 mg/kg [1, 3]: < 25%; inhibition in vivo at 100 mg/kg [1, 4]: 40 to 60% |
| O=C(Nc1cccc(C(F)(F)F)c1)c1cnoc1C1CC1 [Example 5, 5-Cyclopropylisoxazole-4-carboxylic acid 4-(3-trifluoromethyl)anilide] | ≥ 25 | 40 to 60 | 60 to 80 |  |
| C#CCNC(=O)c1cnoc1C1CC1 [Example 3, 5-Cyclopropylisoxazole-4-[N-(2-propynyl)]carboxamide] | < 25 | 40 to 60 | 40 to 60 |  |
| CC(C)NC(=O)c1cnoc1C1CC1 [Example 1, 5-Cyclopropylisoxazole-4-(N-isopropyl)carboxamide] | < 25 |  |  | inhibition in vivo at 76 mg/kg [1, 3]: 25 to 40%; inhibition in vivo at 76 mg/kg [1, 4]: 40 to 60% |
| Cc1oncc1C(=O)NCc1ccc(C(F)(F)F)cc1 [Example 8, 5-Methylisoxazole-4-(N-4-trifluoromethylbenzyl)carboxamide] | < 25 |  |  |  |
| CC(C)(C)NC(=O)c1cnoc1C1CC1 [Example 2, 5-Cyclopropylisoxazole-4-(N-tert-butyl)carboxamide] | < 25 | 40 to 60 | 40 to 60 |  |
| O=C(Nc1ccc(C(F)(F)F)cc1)c1cnoc1C1CC1 [Example 7, 5-Cyclopropylisoxazole-4-carboxylic acid 4-trifluoromethylanilide] | ≥ 25 |  |  |  |
